Counter-ions that a name gives are not always drawn. Like-named read-outs stand apart in the source and are kept apart here.
Key:
[1] = biological target: T1, Acyl-CoA: Cholesterol Acyltransferase (ACAT) (Rattus norvegicus, UniProt Q7TQM4); assay: Inhibition of Acyl-CoA:Cholesterol Acyltransferase (ACAT) in hepatic microsomes; type: biochemical, Sprague Dawley rat
T1 construct: centrifuged at 105,000×g for 1 hour to pellet the microsomes; from tissue; host or cells: liver microsomes of fasted male Sprague Dawley rats
T1 sequence (Q7TQM4 1-524): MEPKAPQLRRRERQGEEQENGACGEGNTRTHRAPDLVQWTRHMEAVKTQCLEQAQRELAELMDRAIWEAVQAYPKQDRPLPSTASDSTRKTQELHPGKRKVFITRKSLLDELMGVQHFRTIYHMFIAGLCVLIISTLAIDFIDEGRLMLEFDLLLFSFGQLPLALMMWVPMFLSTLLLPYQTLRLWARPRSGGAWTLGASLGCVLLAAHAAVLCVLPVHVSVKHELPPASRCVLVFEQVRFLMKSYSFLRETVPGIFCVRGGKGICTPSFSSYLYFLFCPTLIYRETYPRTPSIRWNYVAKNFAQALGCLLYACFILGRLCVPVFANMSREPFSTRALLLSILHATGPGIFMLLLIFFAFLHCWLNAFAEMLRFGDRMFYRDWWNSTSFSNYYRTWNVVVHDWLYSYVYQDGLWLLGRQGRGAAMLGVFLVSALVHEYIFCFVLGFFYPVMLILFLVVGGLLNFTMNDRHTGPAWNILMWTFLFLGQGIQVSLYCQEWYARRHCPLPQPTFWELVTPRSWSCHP
Procedure: A. Assay of the Inhibition of Acyl-CoA: Cholesterol Acyltransferase (ACAT) in Hepatic Microsomes
The ability of the compounds to inhibit ACAT, the enzyme responsible for the intracellular synthesis of cholesteryl esters, was tested as follows. Male Sprague Dawley rates weighing 150-300 g were fed rat chow ad libitum. The animals were fasted for twenty-four hours prior to being sacrificed by decapitation. The livers were perfused in situ with 50 ml of cold 0.25M sucrose, excised and homogenized in three volumes of 0.1M phosphate buffer, pH 7.4, that contained 0.5 mM EDTA (ethylenediaminetetraacetic acid), 1.0 mM glutathione, 0.25M sucrose and 20 mM leupeptin. Microsomes were obtained by differential centrifugation; the supernatant from an initial spin at 15,000×g for 15 minutes was centrifuged at 105,000×g for 1 hour to pellet the microsomes. The microsomes were suspended in homogenization buffer, reisolated by centrifugation, and stored at -70° C. Microsomes were used within one month of preparation.
The control assay in a final volume of 200 μl consisted of 200 μg of microsomal protein, 75 μM ^14 C-oleoyl-CoA (10,000 dpm/nmol) in 0.1M phosphate, pH 7.4, that contained 1 mM glutathione. Compounds were added in 5-10 μl of DMSO (dimethyl sulfoxide or ethanol) and additional controls were run with DMSO or ethanol only. All components, except the oleoyl-CoA, were preincubated for 15 min. at 37° C. prior to the initiation of the reaction by the addition of oleoyl CoA. The assay was terminated after 10 min by the addition of 4 ml of chloroform:methanol (2:1, v/v). 20,000 dpm of ^3 H-cholesteryl oleate and 10 μg of unlabeled cholesteryl oleate and oleic acid were added as an internal standard and carrier, respectively. After allowing 10 min. for lipid extraction, 0.8 ml of deionized water was added to separate the solution into two phases. The lower chloroform phase was collected, dried under nitrogen and resuspended in 100 μl of chloroform. The sample containing the neutral lipids was spotted onto a Gelman ITLC-SA polysilicic acid gel-impregnated sheet, which was developed using a hexane: diethyl ether: acetic acid (170:30:1 v/v/v) mobile phase. The lipids were visualized by their interaction with iodine vapor and the cholesteryl ester spot was scraped into a scintillation vial and counted. The specific activity of ACAT in the control incubation averaged 260 pmol/min/mg microsomal protein. The inhibition of ACAT activity by the compounds is shown in Table 7; the data are expressed as the concentration at which ACAT activity is inhibited by 50% (IC50).

[2] = system: murine macrophage-like cell line J744.A1; assay: Inhibition of cholesterol esterification in mammalian cells (macrophage); type: cell-based; settings: Mus musculus; J744.A1 macrophage-like cells loaded with ac-LDL, 14C oleic acid
Procedure: B. Assay of the Inhibition of Cholesterol Esterification in Mammalian Cells The esterification of cholesterol was determined in the murine macrophage-like cell line J744.A1. Cells were seeded in 35 mm wells at a density of 300,000 cells per well in 2 mls of Dulbecco's Modified Eagle Medium (DMEM) supplemented with 10% fetal bovine serum (FBS). Cells were incubated at 37° C. in an atmosphere of 5% CO2 and 93% humidity. After 24 hours the media was changed to 0.68 mls 10% FBS-DMEM containing 34 μg of acetylated human low density lipoprotein (ac-LDL) to increase the intracellular concentration of cholesterol and promote esterification. At 41 hours, various inhibitors were added to the cells in DMSO (10 μl/ml maximum). At 43 hours, the cells were pulsed with 0.1 mM ^14 C oleic acid (10,000 dpm/nmol) complexed with BSA (bovine serum albumin) to follow cholesterol ester formation. The experiment was terminated at 45 hours by washing the monolayers 3 times with 3 ml of Tris-buffered saline at 4° C. The lipids were extracted by incubating the monolayers with 1.5 ml of hexane: isopropanol (3:2, v/v) for 30 min. under gentle agitation. During this period, 10,000 dpm ^3 H-cholesteryl linoleate and 10 μg of cholesteryl oleate were added as an internal standard and carrier respectively. The organic solvent was remoted and the cells were washed with an additional 1.0 ml of hexane: isopropanol which was combined with the original extract. The cells were allowed to dry overnight, digested with 1.5 ml of 0.2 N sodium hydroxide for 1 hour and an aliquot of the solubilized protein used for protein determination using the Lowry method. […] Individual lipids were visualized with iodine and the cholesteryl ester spot cut out and transferred to scintillation vials to determine the amount of radioactivity.

[3] = rat hepatic microsomes, 14C-oleoyl-CoA, 37° C., pH 7.4, read-out: In Vitro ACAT IC50

| Structure (SMILES) | IC50 [1, 3] [µM] | IC50 [2] [µM] | IC50 [1] [µM] |
| --- | --- | --- | --- |
| CN1C(c2ccc(F)cc2)=NC(C(F)(F)F)(C(F)(F)F)C1NC(=O)c1ccc(F)cc1 (centres unmarked) [Example 10, N-[4,4-bis-(trifluoromethyl)-2-(4-fluorophenyl)-4,5-dihydro-1-methyl-1H-imidazol-5-yl]-4-fluorobenzamide] | 41 |  |  |
| CN(C(=O)c1ccc(F)cc1)C1N(C)C(c2ccc(C#N)cc2)=NC1(C(F)(F)F)C(F)(F)F (centres unmarked) [Example Q, N-[4,4-bis(trifluoromethyl)-2-(4-cyanophenyl)-4,5-dihydro-1-methyl-1H-imidazol-5-yl]-N-methyl-4-fluorobenzamide] | 1.91 | 34 |  |
| CN(C(=O)c1ccc(-c2ccccc2)cc1)C1N(C)C(c2ccc(F)cc2)=NC1(C(F)(F)F)C(F)(F)F (centres unmarked) [Example 15, N-[4,4-bis(trifluoromethyl)-2-(4-fluorophenyl)-4,5-dihydro-1-methyl-1 H-imidazol-5-yl]-N-methyl-[1,1'-biphenyl]-4-carboxamide] | 17 | 11 |  |
| CN(C(=O)c1ccc(C#N)cc1)C1N(C)C(c2ccc(C#N)cc2)=NC1(C(F)(F)F)C(F)(F)F (centres unmarked) [Example R, N-[4,4-bis(trifluoromethyl)-4,5-dihydro-1-methyl-2-[4-cyanophenyl]-1H-imidazol-5-yl]-N-methyl-4-cyanobenzamide] | 2 | 13 |  |
| CCCCOc1ccc(C(=O)N(C)C2N(C)C(c3ccc(F)cc3)=NC2(C(F)(F)F)C(F)(F)F)cc1 (centres unmarked) [Example 11, N-[4,4-bis(trifluoromethyl)-2-(4-fluorophenyl)-4,5-dihydro-1-methyl-1H-imidazol-5-yl]-4-butoxy-N-methylbenzamide] | 2 | 14 |  |
| CCCCCCC(=O)N(C)C1N(C)C(c2ccc(F)cc2)=NC1(C(F)(F)F)C(F)(F)F (centres unmarked) [Example 16, N-[4,4-bis(trifluoromethyl)-2-(4-fluorophenyl)-4,5-dihydro-1-methyl-1H-imidazol-5-yl]-N-methylheptanamide hydrochloride] | 2 | 17 |  |
| CN(C(=O)c1ccc([N+](=O)[O-])cc1)C1N(C)C(c2ccc(F)cc2)=NC1(C(F)(F)F)C(F)(F)F (centres unmarked) [Example 14, N-[4,4-bis(trifluoromethyl)-2-(4-fluorophenyl)-4,5-dihydro-1-methyl-1H-imidazol-5-yl]-N-methyl-4-nitrobenzamide] | 8 | 18 |  |
| Cc1ccc(OC(=O)N=C2N(C)C(c3ccc(C)cc3)=NC2(C(F)(F)F)C(F)(F)F)cc1 [Example 122] |  |  | 49 |
| CN1C(c2ccc(N3CCCCC3)cc2)=NC(C(F)(F)F)(C(F)(F)F)C1NC(=O)c1ccc(F)cc1 (centres unmarked) [Example 32, N-[4,4-bis(trifluoromethyl)-4,5-dihydro-1-methyl-2-[4-(1-piperidinyl)phenyl]-1H-imidazol-5-yl]-4-fluorobenzamide] | 2 | 17 |  |
| COc1ccc(OC(=O)N=C2N(C)C(c3ccc(OC)cc3)=NC2(C(F)(F)F)C(F)(F)F)cc1 [Example 121] |  |  | 64 |
| CCCCCCCCCCCC(=O)N(C)C1N(C)C(c2ccc(F)cc2)=NC1(C(F)(F)F)C(F)(F)F (centres unmarked) [Example 17] | 6 |  |  |

Second part, led by results:

| IC50 [1, 3] [µM] | IC50 [2] [µM] | Structure (SMILES) | IC50 [1] [µM] |
| --- | --- | --- | --- |
| 41 | 98 | CN(C(=O)C12CCC(C)(C(=O)O1)C2(C)C)C1N(C)C(c2ccc(F)cc2)=NC1(C(F)(F)F)C(F)(F)F (single isomer, unassigned) [Example 25] |  |
| 4 |  | CC(C)CCCC(=O)N(C)C1N(C)C(c2ccc(F)cc2)=NC1(C(F)(F)F)C(F)(F)F (centres unmarked) [Example 18, N-[4,4-bis(trifluoromethyl)-2-(4-fluorophenyl)-4,5-dihydro-1-methyl-1H-imidazol-5-yl]-N,5-dimethyl-hexanamide hydrochloride] |  |
| 6 |  | CCOc1ccc(C(=O)NC2N(C)C(c3ccc(F)cc3)=NC2(C(F)(F)F)C(F)(F)F)cc1 (centres unmarked) [Example 30, N-[4,4-bis(trifluoromethyl)-2-(4-fluorophenyl)-4,5-dihydro-1-methyl-1H-imidazol-5-yl]-4-ethoxybenzamide] |  |
| 20 | 62 | Cc1ccc(C(=O)N=C2N(C)C(c3ccc(C)cc3)=NC2(C(F)(F)F)C(F)(F)F)cc1 [Example 5] |  |
| 9 |  | COc1ccc(C2=NC(C(F)(F)F)(C(F)(F)F)C(N(C)C(=O)CCCC(C)C)N2C)cc1 (centres unmarked) [Example 34, N-[4,4-bis(trifluoromethyl)-2-(4-methoxyphenyl)-4,5-dihydro-1-methyl-1H-imidazol-5-yl]-N,5-dimethylhexanamide hydrochloride] |  |
| 45 | 96 | CN(C(=O)C12CCC(C)(C(=O)O1)C2(C)C)C1N(C)C(c2ccc(F)cc2)=NC1(C(F)(F)F)C(F)(F)F (centres unmarked) [Example 26] |  |
| 16 |  | CCCCCCCCNC(=O)N(C)C1N(C)C(c2ccc(F)cc2)=NC1(C(F)(F)F)C(F)(F)F (centres unmarked) [Example 29, N-[4,4-bis(trifluoromethyl)-2-(4-fluorophenyl)-4,5-dihydro-1-methyl-1H-imidazol-5-yl]-N'-octyl-N-methylurea hydrochloride] |  |
| 19 |  | CN1C(=CC(=O)c2ccc(F)cc2)C(C(F)(F)F)(C(F)(F)F)N=C1c1ccc(F)cc1 [Example 96B, 2-[4,4-bis(trifluoromethyl)-2-(4-fluorophenyl)-4,5-dihydro-1-methyl-1H-imidazol-5-ylidene]-1-(4-fluorophenyl)-1-ethanone] |  |
| > 100 |  | CN1C(=O)C(C(F)(F)F)(C(F)(F)F)N=C1c1ccc(F)cc1 [Example 123, 2-(4-fluorophenyl)-3,5-dihydro-3-methyl-4,4-bis(trifluoromethyl)-4H-imidazol-4-one] |  |
| 22 |  | CN(C(=O)Nc1ccc(F)cc1F)C1N(C)C(c2ccc(F)cc2)=NC1(C(F)(F)F)C(F)(F)F (centres unmarked) [Example 28, N-[4,4-bis(trifluoromethyl)-2-(4-fluorophenyl)-4,5-dihydro-1-methyl-1H-imidazol-5-yl]-N'-2,4-difluorophenyl-N-methylurea] |  |
| 6 |  | COc1ccc(C(=O)N(C)C2N(C)C(c3ccc(F)cc3)=NC2(C(F)(F)F)C(F)(F)F)cc1 (centres unmarked) [Example 12, N-[4,4-bis(trifluoromethyl)-2-(4-fluorophenyl)-4,5-dihydro-1-methyl-1H-imidazol-5-yl]-4-methoxy-N-methylbenzamide] |  |

From US5428041A, “Antihypercholesterolemic bis-trifluoromethyl-substituted imidazolines and derivatives thereof” (The Du Pont Merck Pharmaceutical Company, priority 1992, dated 1995)
